Assay results reported in patent US11674967B2, “Method of identifying potential inhibitors of APO TNFα trimers” (UCB BIOPHARMA SRL, priority 2015, dated 2023).

Experiments:
TNFα = TNFα (Homo sapiens, UniProt P01375); assay: Mass spectrometric analysis of compound binding to TNFα (soft ionisation)
Method: Mass spectrometry was typically performed using a Waters LCT-premier Time-of-Flight mass spectrometer or a Waters SynaptG2 Q-TOF mass spectrometer. Samples were introduced using an Advion Triversa Nanomate nanoflow infusion device which replaces the conventional spectrometer source, sample injection was via an “A” series chip with […] nozzle size at a nominal flow rate of 100 nl/min. Further modifications to the Waters LCT-premier Time-of-Flight mass spectrometer include a customised source cooling device allowing precise control of the source temperature and a commercial pressure regulation device giving precise control over the vacuum conditions in the source region. Together these modifications help retain the TNFα trimer in a native, folded conformation and facilitate the detection of complexes formed with test compounds of weak affinities.
Ions were generated using standard positive ion electrospray conditions resulting in multiple charging of TNFα.
Mass spectrometry is very sensitive to the buffer salts present in the protein sample. Typical buffer salts such as potassium or sodium phosphates have a severely detrimental affect on ionisation. Accordingly protein samples were pre-treated to remove these salts using a Zeba desalt spin column, the protein being exchanged into a mass spectrometry compatible buffer system, typically 50 mM Ammonium Acetate at pH 6.8.
Typically the test compounds were presented as 10 mM DMSO stock solutions such that when they are incubated with TNFα in solution the final DMSO concentration is 5%. […] This is evidenced by the changes in the number of charges acquired by the protein under the various conditions described.
Test compounds were prepared as 10 mM solutions in dimethylsulphoxide (DMSO). Therefore, it was necessary to establish the effect of DMSO on the native TNFα trimer in the absence of a test compound. […]
Incubation of a library of test compounds, including the compound of formula (3) with TNFα was monitored by mass spectrometry under soft ionization conditions. […]

TNF-R1 = assay: HEK-Blue NF-κB reporter gene counterscreen, activating TNF-R1 antibody stimulus; format: cell-based, human; conditions: antibody 300 ng/mL
Method: Stimulation of HEK-293 cells by TNF-alpha leads to activation of the NF-kB pathway. The reporter cell line used to determine TNF alpha activity was purchased from Invivogen. HEK-Blue™ CD40L, is a stable transfectant expressing SEAP (secreted alkaline phosphatase) under the control of the IFN-beta minimal promoter fused to 5 NF-kB binding sites. Secretion of SEAP by these cells is stimulated in a concentration dependent manner by TNF-alpha (0.5 ng/ml), IL-1-beta (0.5 ng/ml) and an activating anti-human TNFR1 antibody (300 ng/ml).
Compounds were diluted from 10 mM DMSO stocks (final assay concentration 0.3%) to generate a 10 point 3 fold serial dilution curve (30,000 nM to 2 nM final concentration). They were mixed with stimulating ligand for 1 hour in a 384 well microtitre plate. Freshly thawed and washed cells were added to the compound/stimulus mixture and further incubated for 18 hours. SEAP activity was determined in the supernatant using the colorimetric substrate Quanti-Blue™ (Invivogen).
Percentage inhibitions for compound dilutions were calculated between a DMSO control and maximum inhibition (by excess control compound) and an IC50 calculated using xlfit (4 parameter logistic model) in Activity Base.
The specific activity of the compound of formula (15) against the TNF-alpha response was compared to that seen with the counterscreens (IL-1beta and anti-human TNFR1 antibody).

Sequence of TNFα (P01375 77-233 limits assumed): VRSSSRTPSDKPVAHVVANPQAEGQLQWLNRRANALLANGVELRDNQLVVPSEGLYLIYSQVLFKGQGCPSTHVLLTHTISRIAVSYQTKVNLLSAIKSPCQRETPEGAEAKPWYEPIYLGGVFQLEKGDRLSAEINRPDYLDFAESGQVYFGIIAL

| SMILES | effect on trimeric TNFα (charge state envelope) (TNFα; 5% v/v DMSO) | binding to the monomeric form of TNFα (TNFα; soft ionization) | stoichiometry of binding (TNFα; soft ionization) | inhibition of activation of NF-κB by activating TNF-R1 antibody (TNF-R1) |
| --- | --- | --- | --- | --- |
| Cc1ccc(C)c(Cn2c(C(O)c3ccncc3)nc3ccccc32)c1 (stereo not shown) [Compound 3] | stabilization of the trimeric TNFα complex | not observed to bind | one molecule of the compound of formula (3) per TNFα trimer | – |
| Cc1ccc(C)c(Cn2c(C(O)c3ccncc3)nc3ccc(-c4cnn(C)c4)cc32)c1 (stereo not shown) [Compound 15] | – | – | – | did not inhibit |
